Assay results as given in patent EP1500403A1, “PREVENTIVE/REMEDY FOR DIABETES” (Ajinomoto Co., Inc., priority 2002, dated 2003).

Legend:
Type in all cases: in vivo
Male Wistar rats [1] = assay: Assessment of excretion action of urine sugar in rat (Test Example 1B); conditions: Oral Administration in Rat (24 hours)
Experimental: Male Wistar rats aged 5 weeks (purchased from Charles River Japan, Inc.) were acclimatized in metabolic cages for one week, for use at this experiment. The test compounds suspended in olive oil were prepared into solutions to a dose of 5 ml per 1 kg rat body weight. After the rats were starved for 4 hours, the test compounds were orally given at 10, 30 and 100 mg/kg to the rats at 11 am. Immediately after dosing until 24 hours later, urine was collected. The volume of urine was measured. Then, urine glucose concentration was assayed by glucose oxidase method, to calculate the glucose excretion into urine per individual per day. As a positive control, 3-(5-benzo[b]furanyl)-2'-(6-o-methoxycarbonyl-β-D-glucopyranosyldxy)-6'-hydroxy-4'-methylpropiophenone [under a different name of 3-(benzo[b]furan-5-yl)-2', 6'-dihydroxy-4'-methylpropiophenone 2'-o-(6-o-methoxycarbonyl-β-D-glucopyranoside)] was used.

[2] = system: Type 2 diabetes model db/db mice; assay: Nateglinide load test after repeated dosing in db/db mice (Example IV); conditions: for Blood glucose level 30 minutes after loading / Blood glucose level 120 minutes after loading / Blood glucose level before loading: db/db mice, compound successively dosed 80 mg/kg p.o. twice daily, day 25, Mean ± SD, N = 5; for Blood glucose level 30 minutes after loading / Blood glucose level 120 minutes after loading: loading with glucose 1 g/kg and nateglinide 50 mg/kg p.o.; for Blood glucose level before loading: starved 17 hours, nateglinide load test
Experimental: Type 2 diabetes model db/db mice (age 6 weeks) were fed and kept with a feed twice daily over one hour starting 9 am and one hour starting 3 pm, for one week. Then, the mice were divided into groups with matched blood glucose levels and body weights. Subsequently, the inhibitor B of renal glucose reabsorption at 80 mg/kg or nateglinide at 80 mg/kg was orally given, immediately before feeding twice daily. Only a vehicle was orally given immediately before feeding twice daily to the animals of a control group. On day 25 from the start of administration, the mice of the individual experimental groups were starved for 17 hours and then orally given glucose (1 g/kg) and nateglinide (50 mg/kg). Blood glucose levels were measured before and after the administration, to examine whether or not the hypoglycemic action of nateglinide could be observed (nateglinide load test).

glucose-loaded rats = assay: Blood glucose time course after oral glucose loading in rats (Example I); conditions: Wistar rats, glucose 1 g/kg p.o.
Experimental: Wistar rats (age of 7 weeks; male) were divided into groups with matched body weights. After 17-hour starvation, glucose was orally given at 1 g/kg to the animals. Immediately after the administration, the inhibitor A of renal glucose reabsorption or the inhibitor B of renal glucose reabsorption (A at 30 mg/kg or 60 mg/kg; B at 30 mg/kg or 80 mg/kg) or glibenclamide (1 mg/kg or 2 mg/kg) or nateglinide (50 mg/kg or 80 mg/kg) was orally given. Additionally, a group on the combined use of both of an inhibitor of renal glucose reabsorption and a hypoglycemic agent was also prepared. A vehicle was orally given to a control group after glucose administration.
Blood glucose was measured in a time course.

Male Wistar rats [3] = assay: Assessment of excretion action of urine sugar in rat (Test Example 2A); conditions: urine collected 24 hours
Experimental: Male Wistar rats aged 5 weeks (purchased from Charles River Japan, Inc.) were acclimatized in metabolic cages for one week, for use at this experiment. The test compounds suspended in olive oil were dosed at 5 ml per 1 kg rat body weight.
After the rats were starved for 4 hours, the test compounds were orally given to the rats at 11 am. Immediately after dosing until 24 hours later, urine was collected. The volume of urine was measured. Then, urine sugar concentration was assayed by glucose oxidase method, to calculate the glucose excretion into urine per individual per day.

[4] = system: Type 2 diabetic model GK rats; assay: Blood glucose after repeated once daily dosing in GK rats (Example III); conditions: once daily p.o., vs vehicle-dosed group (Fig. 4)
Experimental: These agents were orally given once daily at the same time period as in the group administered with a single one agent. Only a vehicle was given orally to a control group. On day 25 after the start of administration, blood glucose was assayed sequentially, to compare the groups in terms of the resulting blood glucose levels.

[5] = system: Type 2 diabetes model Zucker diabetic fatty rats; assay: Insulin content in pancreas after repeated dosing in Zucker diabetic fatty rats, ELISA (Example V); conditions: twice daily p.o., day 39, starved 18 hours, inhibitor A 30 mg/kg, metformin 200 mg/kg, or both, ELISA of pancreas homogenates (Fig. 5)
Experimental: The agents were orally given twice daily at the same time period as in the case of the groups administered with a single one of these agents. Only a vehicle was orally given twice daily to the animals in a control group. On day 39 from the start of administration, the animals were starved for 18 hours. Then, pancreas was resected from the animals, for the assay of insulin in pancreas homogenates by ELISA, to compare the groups in terms of insulin content in pancreas.

glucose-loaded mice = assay: Blood glucose time course after oral glucose loading in KK mice (Example II); conditions: glucose 1 g/kg p.o.
Experimental: KK mice (age of 25 weeks; male) fed with a commercially available high-calories feed for breeding (CMF; Oriental Yeast) were divided into groups with matched body weights. After starvation for 17 hours, glucose was orally given at 1 g/kg. Immediately thereafter, the inhibitor A of renal glucose reabsorption (30 mg/kg or 45 mg/kg) or metformin (200 mg/kg or 300 mg/kg) was orally given. Additionally, a group given with the inhibitor A of renal glucose reabsorption (30 mg/kg) and metformin (200 mg/kg) was prepared. A vehicle was orally given to a control group after glucose dosing.
Blood glucose level was assayed in a time course.

[6] = nateglinide 50 mg/kg, inhibitor B 30 mg/kg, or both, p.o., vs vehicle group (Fig. 2)
[7] = nateglinide 80 mg/kg or inhibitor B 80 mg/kg p.o., vs lower dose (Fig. 2)
[8] = Dose 100 mg/kg p.o. in olive oil
[9] = glibenclamide 1 mg/kg, inhibitor A 30 mg/kg, or both, p.o., vs vehicle group (Fig. 1)

Structure (SMILES): COC(=O)OC[C@H]1O[C@@H](Oc2cc(C)cc(O)c2C(=O)CCc2ccc3occc3c2)[C@H](O)[C@@H](O)[C@@H]1O [3-(5-benzo[b]furanyl)-2'-(6-o-methoxycarbonyl-β-D-glucopyranosyloxy)-6'-hydroxy-4'-methylpropiophenone]
- Excreted urine sugar (Male Wistar rats [1]; Dose 10 mg/kg): 2 mg
- Excreted urine sugar (Male Wistar rats [1]; Dose 30 mg/kg): 78 mg
- Excreted urine sugar (Male Wistar rats [1]; Dose 100 mg/kg): 274 mg
- hyperglycemia due to glucose loading, 30 minutes after loading with glucose and nateglinide ([2]; db/db mice given inhibitor B 80 mg/kg twice daily long-term, compared with vehicle-dosed and nateglinide-dosed groups): greatly suppressed hyperglycemia
- Blood glucose level 30 minutes after loading [2]: 172 ± 14 mg/dL
- Blood glucose level 120 minutes after loading [2]: 103 ± 5 mg/dL
- Blood glucose level before loading [2]: 131 ± 6 mg/dL
- blood glucose level 180 minutes after glucose loading and thereafter (glucose-loaded rats; inhibitor B 30 mg/kg alone or with nateglinide 50 mg/kg, p.o., vs vehicle group (Fig. 2)): lower than that in the vehicle-dosed group
- hyperglycemia / blood glucose level 30 minutes after glucose loading (glucose-loaded rats; [6]): not reduced as greatly as in the case of nateglinide
- pattern of glycemic suppression at increased dose (glucose-loaded rats; [7]): pattern of glycemic suppression was also observed

Structure (SMILES): Cc1[nH]nc(O[C@@H]2O[C@H](CO)[C@@H](O)[C@H](O)[C@H]2O)c1Cc1ccc(OC(C)C)cc1 [4-[(4-isopropoxyphenyl)methyl)-5-methyl-1H-pyrazole-3-o-β-D-glucopyranoside]
- Excreted urine sugar (Male Wistar rats [3]; [8]): 14 mg

Structure (SMILES): CCc1ccc(Cc2c(O[C@@H]3O[C@H](COC(=O)OC)[C@@H](O)[C@H](O)[C@H]3O)nn(C(CF)CF)c2C(F)(F)F)cc1 [Compound of Production Example 2B, 4'-[(4'-ethylphenyl)methyl]-1'-(1',3'-difluoro-2'-propyl) -5'-(trifluoromethyl) -1H-pyrazole-3'-o-(6-o-methoxycarbonyl-β-D-glucopyranoside)]
- Excreted urine sugar (Male Wistar rats [1]; Dose 10 mg/kg): 136 mg
- Excreted urine sugar (Male Wistar rats [1]; Dose 30 mg/kg): 272 mg
- Excreted urine sugar (Male Wistar rats [1]; Dose 100 mg/kg): 524 mg

Structure (SMILES): CCc1ccc(Cc2c(O[C@@H]3O[C@H](COC(=O)OC)[C@@H](O)[C@H](O)[C@H]3O)nn(Cc3ccccc3)c2C(F)(F)F)cc1 [Compound of Production Example 4-A, 4'-[(4'-ethylphenyl)methyl]-1'-benzyl-5'-trifluoromethyl-1H-pyrazole-3'-o-(6-carbomethoxy)-β-D-glucopyranoside]
- Excreted urine sugar (Male Wistar rats [3]; [8]): 27 mg

Structure (SMILES): CCc1ccc(Cc2c(O[C@@H]3O[C@H](COC(=O)OC)[C@@H](O)[C@H](O)[C@H]3O)nn(Cc3ccc(OC)cc3)c2C(F)(F)F)cc1 [Compound of Production Example 6-A, 4'-[(4'-ethylphenyl)methyl]-1'-[(4'-methoxyphenyl)methyl]-5'-trifluoromethyl-1H-pyrazole-3'-o-(6-carbomethoxy)-β-D-glucopyranoside]
- Excreted urine sugar (Male Wistar rats [3]; [8]): 59 mg

Structure (SMILES): CCc1ccc(Cc2c(O[C@@H]3O[C@H](COC(=O)OC)[C@@H](O)[C@H](O)[C@H]3O)nn(-c3ccccc3)c2C(F)(F)F)cc1 [Compound of Production Example 8-A, 4'-[(4'-ethylphenyl)methyl]-1'-phenyl-5'-trifluoromethyl-1H-pyrazole-3'-o-(6-carbomethoxy)-β-D-glucopyranoside]
- Excreted urine sugar (Male Wistar rats [3]; [8]): 4.1 mg

Structure (SMILES): COC(=O)OC[C@H]1O[C@@H](Oc2nn(C(C)C)c(C)c2Cc2ccc(OC)c(F)c2)[C@H](O)[C@@H](O)[C@@H]1O [Compound of Production Example 10-A, 4'-[(3'-fluoro-4'-methoxyphenyl)methyl]-1'-isopropyl-5'-methyl-1H-pyrazole-3'-o-(6-carbomethoxy)-β-D-glucopyranoside]
- Excreted urine sugar (Male Wistar rats [3]; [8]): 734 mg

Structure (SMILES): COC(=O)OC[C@H]1O[C@@H](Oc2nn(C(C)C)c(C)c2Cc2ccc(C)c(F)c2)[C@H](O)[C@@H](O)[C@@H]1O [Compound of Production Example 14-A, 4'-[(3'-fluoro-4'-methylphenyl)methyl]-1'-isopropyl-5'-methyl-1H-pyrazole-3'-o-(6-carbomethoxy)-β-D-glucopyranoside]
- Excreted urine sugar (Male Wistar rats [3]; [8]): 918 mg

Structure (SMILES): CCc1ccc(Cc2c(O[C@@H]3O[C@H](COC(=O)OC)[C@@H](O)[C@H](O)[C@H]3O)nn(C(C)C)c2C)cc1 [Compound of Production Example 16-A, 4'-[(4-ethylphenyl)methyl]-1'-isopropyl-5'-methyl-1H-pyrazole-3'-o-(6-carbomethoxy)-β-D-glucopyranoside]
- Excreted urine sugar (Male Wistar rats [3]; Dose 3 mg/kg p.o. in olive oil): 28 mg
- Excreted urine sugar (Male Wistar rats [3]; Dose 10 mg/kg p.o. in olive oil): 263 mg
- Excreted urine sugar (Male Wistar rats [3]; Dose 30 mg/kg p.o. in olive oil): 294 mg
- Excreted urine sugar (Male Wistar rats [3]; [8]): 598 mg

Structure (SMILES): COc1ccc(Cl)cc1C(=O)NCCc1ccc(S(=O)(=O)NC(=O)NC2CCCCC2)cc1 [glibenclamide]
- blood glucose level ([4]; day 25, glibenclamide 3 mg/kg, inhibitor A 30 mg/kg, or both): no difference was observed from the vehicle-dosed group
- blood glucose level ([4]; day 25, glibenclamide 6 mg/kg): did not produce any difference in blood glucose level from the vehicle-dosed group
- blood glucose level 120 minutes after glucose loading and thereafter (glucose-loaded rats; [9]): lowered blood glucose
- hyperglycemia / blood glucose level immediately after glucose loading (30 minutes) (glucose-loaded rats; [9]): did not suppress hyperglycemia
- pattern of glycemic suppression at increased dose (glucose-loaded rats; glibenclamide 2 mg/kg or inhibitor A 60 mg/kg p.o., vs lower dose (Fig. 1)): did not change

Structure (SMILES): CN(C)C(=N)N=C(N)N [metformin]
- insulin content in pancreas [5]: no difference was observed
- increase of blood glucose / hyperglycemia 30 minutes after glucose loading (glucose-loaded mice; metformin 200 mg/kg or inhibitor A 30 mg/kg p.o., vs control group (Fig. 3)): did not suppress the increase of blood glucose
- increase of blood glucose 60 minutes later and thereafter (glucose-loaded mice; metformin 200 mg/kg p.o. (Fig. 3)): suppressed the increase
- pattern of glycemic suppression at elevated dose (glucose-loaded mice; metformin 300 mg/kg or inhibitor A 45 mg/kg p.o., vs lower dose (Fig. 3)): did not change

Structure (SMILES): CC(C)[C@H]1CC[C@H](C(=O)N[C@H](Cc2ccccc2)C(=O)O)CC1 [nateglinide]
- Blood glucose level 30 minutes after loading [2]: 259 ± 18 mg/dL
- Blood glucose level 120 minutes after loading [2]: 144 ± 20 mg/dL
- Blood glucose level before loading [2]: 158 ± 12 mg/dL
- blood glucose level 120 minutes after glucose loading and thereafter (glucose-loaded rats; nateglinide 50 mg/kg p.o., vs vehicle-dosed group (Fig. 2)): did not lower the blood glucose level
- hyperglycemia / blood glucose level 30 minutes after glucose loading (glucose-loaded rats; [6]): more highly suppressed hyperglycemia
- hyperglycemia / blood glucose level 60 minutes after glucose loading (glucose-loaded rats; [6]): more highly suppressed hyperglycemia
- pattern of glycemic suppression at increased dose (glucose-loaded rats; [7]): did not change
